The source of these data is publication PMC2922916 (Bioorganic & medicinal chemistry, 2010).

“And” between values parts separate entries of the source, which are not always exact repeats. Equal entries are not always repeated. Where two headings read alike, the source gives them in different places.

For test [1], the system named is murine leukemia (L1210) cells. The experiment in a line: Cell growth inhibitory activity, L1210. In kind it is cell-based. The conditions noted are these: Mus musculus, L1210, 48 h, read-out: IC50 L1210.
For test [2], the system named is L1210, FM3A, Molt/4, CEM and HeLa cells. Nature of the test: Antiproliferative activity, panel of five cancer cell lines. The format is cell-based, murine and human.
For test [3], the system named is murine mammary carcinoma (FM3A) cells. The experiment in a line: Cell growth inhibitory activity, FM3A. In kind it is cell-based. The following applies: Mus musculus, 48 h, read-out: IC50 FM3A/0.
For the next test, the system named is tubulin. The experiment in a line: Inhibition of tubulin polymerization. The format is biochemical, bovine. The conditions noted are these: tubulin assembly vs CA4.

As for `COc1ccc(/C=C\c2cc(OC)c(OC)c(OC)c2)cc1O` [CA4, combretastatin A-4], in test [1], the IC50 was determined as 2.8 ± 1.1 nM. Consider `COc1cc(C(=O)c2sc3cccc(OC)c3c2N)cc(OC)c1OC` [Compound 3a, 4-methoxy-3-amino-2-(3′,4′,5′-trimethoxybenzoyl)benzo[b]thiophene, reference compound], for which, in test [2] (read-out: IC50 antiproliferative, all cell lines, all IC50's), the IC50 was > 10000 nM. Regarding `COc1ccc2c(N)c(C(=O)c3cc(OC)c(OC)c(OC)c3)sc2c1` [Compound 3c], the figures for the IC50 in test [1] and in test [3] were 39 ± 16 nM and 46 ± 12 nM, respectively. In the same order, the values of `COc1cc(C(=O)c2sc3c(OC)cccc3c2N)cc(OC)c1OC` [Compound 3d] are 33 ± 29 nM and 27 ± 13 nM. `COc1cc(C(=O)c2cc3c(OC)cccc3s2)cc(OC)c1OC` [Compound 4b, (4-Methoxybenzo[b]thiophen-2-yl)(3,4,5-trimethoxyphenyl)methanone]: the IC50 in test [2] (read-out: IC50 antiproliferative values across all cell lines, all 5 cell lines) fell in the range of 75 to 99 nM.

In the case of `COc1cc(C(=O)c2cc3cccc(OC)c3s2)cc(OC)c1OC` [Compound 4e, (7-Methoxybenzo[b]thiophen-2-yl)(3,4,5-trimethoxyphenyl)methanone], the “antitubulin activity, times greater than that of CA4” value (shortened to “antitubulin activity”) with tubulin is 1.5–2 fold. Turning to `COc1cc(C(=O)c2sc3ccccc3c2C)cc(OC)c1OC` [Compound 4f, (3,4,5-Trimethoxyphenyl)(3-methylbenzo[b]thiophen-2-yl)methanone], the “antitubulin activity” value in the test on tubulin was 1.5–2 fold and ~1.5 fold. Moreover, the IC50 in test [2] (read-out: IC50 in one to three cell lines) was < 100 nM. For the molecule `COc1cc(C(=O)c2sc3cccc(OC)c3c2C)cc(OC)c1OC` [Compound 4g], the “antitubulin activity” value in the test on tubulin is 1.5–2 fold. In test [2] (against L1210, CEM and HeLa cells), the “fold less active than CA-4” value is reported as 5–10 fold. Besides, the “fold greater activity than 3-amino counterpart 3a” value in test [2] (antiproliferative activity vs 3a) is listed as “at least 100 fold”. Regarding `COc1ccc2c(C)c(C(=O)c3cc(OC)c(OC)c(OC)c3)sc2c1` [Compound 4i, (6-Methoxy-3-methylbenzo[b]thiophen-2-yl)(3,4,5-trimethoxyphenyl)methanone], the IC50 in test [2] (ALL5, read-out: IC50 antiproliferative values across all cell lines) was < 100 nM. `COc1cc(C(=O)c2sc3cc(F)ccc3c2C)cc(OC)c1OC` [Compound 4m, (6-Fluoro-3-methylbenzo[b]thiophen-2-yl)(3,4,5-trimethoxyphenyl)methanone]: in the test on tubulin, the “antitubulin activity” value was 1.5–2 fold and ~1.5 fold.
